Reference: patent publication US20200163984A1, “USE OF ISOVALERYL SPIRAMYCIN I, II AND/OR III IN MANUFACTURING MEDICAMENT FOR TREATING AND/OR PREVENTING TUMOR, AND MEDICAMENT” (SHENYANG FUYANG PHARMACEUTICAL TECHNOLOGY CO., LTD., priority 2017, published 2020)

How the values were obtained:
[1] = system: transplanted tumor of human pancreatic cancer cell PANC-1; test: PANC-1 transplanted tumor in nude mice; settings: for Tumor Volume (mm3) (d 1): d1
Experimental: (§1) Then cell concentration was adjusted to 1×10^7/ml with matrigel, then each nude mouse was inoculated subcutaneously with 0.2 ml of cells at its right armpit and recorded as the first day of inoculation. When the tumor grows to be greater than or equal to 100 mm^3, the mice were randomly divided into 11 groups with 6 mice in each group: a model group, a cyclophosphamide group, isovaleryl spiramycin I groups with doses of 25, 50 and 100 mg/kg, isovaleryl spiramycin II groups with doses of 25, 50 and 100 mg/kg, and isovaleryl spiramycin III groups with doses of 25, 50 and 100 mg/kg. Each group was continuously administered intragastrically for 30 days with a dose of 20 ml/kg. The mice were sacrificed the next day after drug withdrawal and the indicators were tested. The long diameter and short diameter of the tumor, and the body weight of each mouse were recorded every 3 days from drug administration to nude mouse sacrifice.
(§2) The body weight of the nude mice and the long diameter (a) and short diameter (b) of the transplanted tumor were measured every 3 days, and the tumor volume (v), relative tumor volume (RTV) and relative tumor proliferation rate (T/C) are calculated respectively according to the following formulas, wherein V=a×b^2/2; RTV=V/V0 (V0 is the tumor volume before administration, V is the tumor volume before sacrifice), and T/C (%)=treatment group RTV/model control group RTV×100%.
(§3) Each mouse was weighed and sacrificed. After the tumor was completely stripped off from the body of the mouse, the non-tumor tissues such as blood stains and fat were removed to weigh the tumor and calculate the tumor growth inhibition rate. The average tumor weight of each group of mice is used as an indicator of efficacy. Tumor growth inhibition rate (%)=(1−the average tumor weight of the treatment group/the average tumor weight of the model group)×100%.

[2] = system: transplanted tumor of human thyroid cancer cell TPC-1; test: TPC-1 transplanted tumor in nude mice; settings: for Tumor Volume (mm3) (d30): d 30
Experimental: as §1, with “group:” for “group: a model group, a cyclophosphamide group,”
as §2, §3

[3] = Spleen index of A549 lung cancer tumor-bearing mice; settings: n = 6
[4] = TPC-1, high dose (100 mg/kg in method) i.g. 30 days
[5] = TPC-1, low dose (25 mg/kg in method) i.g. 30 days
[6] = TPC-1, medium dose (50 mg/kg in method) i.g. 30 days

**Q.** Which “Relative Tumor Proliferation Rate (T/C)” value ([1]; PANC-1, low dose i.g. 30 days) does the source give for `CCC(=O)O[C@@H]1CC(=O)O[C@H](C)C/C=C/C=C/[C@H](O[C@H]2CC[C@H](N(C)C)[C@@H](C)O2)[C@H](C)C[C@H](CC=O)[C@H](O[C@@H]2O[C@H](C)[C@@H](O[C@H]3C[C@@](C)(O)[C@@H](OC(=O)CC(C)C)[C@H](C)O3)[C@H](N(C)C)[C@H]2O)[C@H]1OC` [Isovaleryl spiramycin III, isovaleryl spiramycin III] here?
**A.** Its value is 75.03%.

**Q.** What about the “tumor volume and relative tumor volume compared with the model group” value ([1]; PANC-1, low, medium and high doses, P<0.05) of the same compound?
**A.** The value was “significantly lower”.

**Q.** And the “Relative Tumor Proliferation Rate (T/C)” value ([1]; PANC-1, medium dose i.g. 30 days)?
**A.** The value was 54.92%.

**Q.** And the “Relative Tumor Proliferation Rate (T/C)” value ([1]; PANC-1 nude mice, 12.5 mg/kg)?
**A.** The value was 75.03%.

**Q.** And the “Relative Tumor Volume (RTV)” value ([1]; PANC-1 nude mice, 12.5 mg/kg)?
**A.** Its value is 13.13 ± 3.15.

**Q.** And the “Tumor Volume (mm3) (d 1)” value ([1]; PANC-1 nude mice, 12.5 mg/kg)?
**A.** The value was 137.99 ± 20.99 mm3.

**Q.** What about the “Tumor Volume (mm3) (d30)” value ([1]; PANC-1 nude mice, 12.5 mg/kg) of the same compound?
**A.** The value was 1758.49 ± 129.06 mm3.

**Q.** And the “Relative Tumor Proliferation Rate (T/C)” value ([1]; PANC-1 nude mice, 25 mg/kg)?
**A.** Its value is 54.92%.

**Q.** And the “Relative Tumor Volume (RTV)” value ([1]; PANC-1 nude mice, 25 mg/kg)?
**A.** The value was 9.61 ± 1.66.

**Q.** And the “Tumor Volume (mm3) (d 1)” value ([1]; PANC-1 nude mice, 25 mg/kg)?
**A.** Its value is 109.95 ± 13.42 mm3.

**Q.** What about the “Tumor Volume (mm3) (d30)” value ([1]; PANC-1 nude mice, 25 mg/kg) of the same compound?
**A.** Its value is 1043.33 ± 113.01 mm3.

**Q.** What about the “Relative Tumor Proliferation Rate (T/C)” value ([1]; PANC-1 nude mice, 50 mg/kg) of the same compound?
**A.** Its value is 34.90%.

**Q.** What about the “Relative Tumor Volume (RTV)” value ([1]; PANC-1 nude mice, 50 mg/kg) of the same compound?
**A.** Its value is 5.17 ± 0.64.

**Q.** And the “Tumor Volume (mm3) (d 1)” value ([1]; PANC-1 nude mice, 50 mg/kg)?
**A.** Its value is 113.14 ± 9.02 mm3.

**Q.** And the “Tumor Volume (mm3) (d30)” value ([1]; PANC-1 nude mice, 50 mg/kg)?
**A.** The value was 684.21 ± 115.00 mm3.

**Q.** What about the “mouse weight compared with the model group” value ([1]; mouse, in vivo) of the same compound?
**A.** The value was “no significant changes”.

**Q.** And the “Relative Tumor Proliferation Rate (T/C)” value [2, 4]?
**A.** The value was 34.75%.

**Q.** What about the “tumor growth inhibition rate” value [2, 4] of the same compound?
**A.** The value was 62.94%.

**Q.** And the “Relative Tumor Proliferation Rate (T/C)” value [2, 5]?
**A.** The value was 61.93%.

**Q.** What about the “tumor growth inhibition rate” value [2, 5] of the same compound?
**A.** The value was 39.06%.

**Q.** What about the “tumor volume and relative tumor volume compared with the model group” value ([2]; TPC-1, low, medium and high doses, P<0.05) of the same compound?
**A.** Its value is “significantly lower”.

**Q.** And the “Relative Tumor Proliferation Rate (T/C)” value [2, 6]?
**A.** The value was 45.01%.

**Q.** What about the “tumor growth inhibition rate” value [2, 6] of the same compound?
**A.** Its value is 60.25%.

**Q.** And the “Inhibition Rate (%)” value ([2]; dose 25 mg/kg)?
**A.** Its value is 39.06%.

**Q.** And the “Relative Tumor Proliferation Rate (T/C)” value ([2]; dose 25 mg/kg)?
**A.** Its value is 61.93%.

**Q.** What about the “Relative Tumor Volume (RTV)” value ([2]; dose 25 mg/kg) of the same compound?
**A.** Its value is 10.19 ± 2.79.

**Q.** What about the “Tumor Weight” value ([2]; dose 25 mg/kg) of the same compound?
**A.** The value was 1.47 ± 0.44 g.

**Q.** What about the “Tumor Volume (mm3) (d 1)” value ([2]; dose 25 mg/kg) of the same compound?
**A.** Its value is 119.35 ± 3.84 mm3.

**Q.** What about the “Tumor Volume (mm3) (d30)” value ([2]; dose 25 mg/kg) of the same compound?
**A.** Its value is 1210.76 ± 295.50 mm3.

**Q.** What about the “Inhibition Rate (%)” value ([2]; dose 50 mg/kg) of the same compound?
**A.** The value was 60.25%.

**Q.** And the “Relative Tumor Proliferation Rate (T/C)” value ([2]; dose 50 mg/kg)?
**A.** Its value is 45.01%.

**Q.** What about the “Relative Tumor Volume (RTV)” value ([2]; dose 50 mg/kg) of the same compound?
**A.** Its value is 7.41 ± 2.51.

**Q.** And the “Tumor Weight” value ([2]; dose 50 mg/kg)?
**A.** Its value is 0.96 ± 0.43 g.

**Q.** What about the “Tumor Volume (mm3) (d 1)” value ([2]; dose 50 mg/kg) of the same compound?
**A.** Its value is 116.75 ± 5.22 mm3.

**Q.** What about the “Tumor Volume (mm3) (d30)” value ([2]; dose 50 mg/kg) of the same compound?
**A.** Its value is 866.73 ± 306.25 mm3.

**Q.** What about the “Inhibition Rate (%)” value ([2]; dose 100 mg/kg) of the same compound?
**A.** Its value is 62.94%.

**Q.** What about the “Relative Tumor Proliferation Rate (T/C)” value ([2]; dose 100 mg/kg) of the same compound?
**A.** The value was 34.75%.

**Q.** What about the “Relative Tumor Volume (RTV)” value ([2]; dose 100 mg/kg) of the same compound?
**A.** The value was 5.72 ± 3.04.

**Q.** What about the “Tumor Weight” value ([2]; dose 100 mg/kg) of the same compound?
**A.** Its value is 0.90 ± 0.44 g.

**Q.** What about the “Tumor Volume (mm3) (d 1)” value ([2]; dose 100 mg/kg) of the same compound?
**A.** Its value is 115.43 ± 7.58 mm3.

**Q.** And the “Tumor Volume (mm3) (d30)” value ([2]; dose 100 mg/kg)?
**A.** The value was 654.78 ± 338.68 mm3.

**Q.** And the “mouse weight compared with the model group” value ([2]; mouse, in vivo)?
**A.** Its value is “no significant changes”.

**Q.** And the “Body Weight (g) (d1)” value ([2]; mouse, in vivo, 25 mg/kg)?
**A.** Its value is 21.13 ± 1.48 g.

**Q.** And the “Body Weight (g) (d30)” value ([2]; mouse, in vivo, 25 mg/kg)?
**A.** The value was 23.49 ± 1.02 g.

**Q.** What about the “Body Weight (g) (d1)” value ([2]; mouse, in vivo, 50 mg/kg) of the same compound?
**A.** The value was 21.43 ± 1.85 g.

**Q.** And the “Body Weight (g) (d30)” value ([2]; mouse, in vivo, 50 mg/kg)?
**A.** The value was 24.06 ± 1.71 g.

**Q.** And the “Body Weight (g) (d1)” value ([2]; mouse, in vivo, 100 mg/kg)?
**A.** Its value is 20.76 ± 2.13 g.

**Q.** What about the “Body Weight (g) (d30)” value ([2]; mouse, in vivo, 100 mg/kg) of the same compound?
**A.** The value was 23.72 ± 1.60 g.

**Q.** What about the “Spleen Index (%)” value ([3]; dose 13 mg/kg) of the same compound?
**A.** The value was 0.32 ± 0.02%.

**Q.** What about the “Spleen Index (%)” value ([3]; dose 26 mg/kg) of the same compound?
**A.** The value was 0.33 ± 0.11%.

**Q.** And the “Spleen Index (%)” value ([3]; dose 52 mg/kg)?
**A.** Its value is 0.35 ± 0.09%.
